Test results reported in patent US11642345B2, “Replication stress pathway agent compositions and methods for treating cancer” (Boundless Bio, Inc., priority 2020, dated 2023).

How the values were obtained:
[1] = system: COLO320-DM and SNU16 (ecDNA+), COLO320-HSR and DLD1 (ecDNA−) cell models; experiment: In vitro soft agar colony formation assay, 21 days, RNRi (FIG. 40A); type: cell-based; settings: treated once on day of seeding, increasing doses
Protocol: (§1) FIGS. 40A-40C show inhibition of RNR blocks nucleotide synthesis causing enhanced replication stress and reduced cellular transformation in ecDNA+ compared to ecDNA-tumor cells. […] In FIG. 40A, to evaluate cellular transformation, an in vitro soft agar colony formation assay was conducted wherein ecDNA bearing COLO320-DM and SNU16 cell models were grown alongside ecDNA− cell models, COLO320-HSR and DLD1 in this 3D-format assay for 21 days. Cells were treated individually only once on the day of the seeding of cells at increasing doses of RNRi, (5-chloro-2-[[rac-(1S,2R)-2-(6-fluoro-2,3-dimethyl-phenyl)-1-(2-oxo-3H-1,3,4-oxadiazol-5-yl)propyl]sulfamoyl]benzamide). In FIG. 40B, to determine change in ecDNA carrying MYC amplified oncogene counts, ecDNA+ (COLO320-DM) cells were treated with an IC-90 dose (10 uM) of RNRi for 21 days. Cells in log-growth phase were arrested in metaphase. FISH (Florescent in-situ hybridization) for MYC oncogene was performed on the fixed metaphase spreads and the nuclei were counterstained with DAPI. […] Cells were lysed and immunoblotted with pRPA32-S33 antibody as a marker of ssDNA-damage induced replication stress.

[2] = system: ecDNA+ (COLO320-DM) cells; experiment: IC-90 and IC-70 doses of RNRi in COLO320-DM cells; type: cell-based
Protocol: as §1

[3] = system: HeLa ecDNA+ and HeLa ecDNA− cells; experiment: HeLa ecDNA+ vs ecDNA− response to Chk1 inhibition, RS and DNA damage markers (FIG. 41A); type: cell-based
[4] = system: ecDNA+ (Colo320 DM) and ecDNA− (Colo320 HSR) cells; experiment: p-RPA32 S4/S8 foci by immunofluorescence after CHK1i (FIG. 41B); type: cell-based; settings: 16 hr treatment
Description: Increased Chk1 phosphorylation at S345 indicates higher activation of RS-activated ATR kinase, while increased gH2AX indicates increased damage resulting from DNA double stranded breaks triggered by replication stress. […] Hyperphosphorylated form of Replication Protein A (RPA) 32 Ser4/Ser8 was detected by immunofluorescence in fixed ecDNA+ (Colo320 DM) and ecDNA− (Colo320 HSR) cell line models that were previously treated with CHK1 i GDC-0575 for 16 hr. Representative bar graph represents % total nuclei positive for P-RPA32 S4/S8 foci (minimum threshold of >3 puncta/nuclei) detected by immunofluorescence in ecDNA+ and ecDNA− cells.

[5] = system: HeLa cells; experiment: HeLa cell confluence by high-content microscopy over three weeks, with or without 100 nM methotrexate; type: cell-based; settings: three weeks
Protocol: Cell confluence was measured via high-content microscopy over the time course.
HeLa cells were treated with a WEE1 inhibitor, 0.01-0.3 μM adavosertib alone, with 1 nM-100 nM PD0166285, with 100 nM methotrexate alone, or with a combination of 0.01-0.3 μM adavosertib and 100 nM methotrexate or a combination of 1 nM-100 nM PD0166285 and 100 nM methotrexate over the course of three weeks. Cell confluence was measured via high-content microscopy over the time course.
HeLa cells were treated with a PARG inhibitor, 3-100 μM PD00017273 with (FIG. 35 top panel) or without (FIG. 35 bottom panel) 100 nM methotrexate over the course of 3 weeks. Cell confluence was measured via high-content microscopy over the time course.
Cell confluence was measured via high-content microscopy over the time course. […] However.

[6] = system: KATOIII cells; experiment: Long-term growth curves under targeted inhibitor; type: cell-based; settings: infigratinib at EC90 (1 uM), 11 weeks
Protocol: (§2) To measure growth kinetics over time, each cell line was treated once or twice per week with targeted inhibitor against the amplified oncogene.

[7] = system: SNU16 cells; experiment: 5 day viability assay, CellTiter-Glo 2.0; type: cell-based; settings: Homo sapiens, SNU-16
[8] = system: SNU16 cells; experiment: Long-term cell growth / resistance development in SNU16 cells; type: cell-based, human; settings: for cell growth / resistance formation: 9 weeks
Protocol: Each treatment arm was terminated once the cell number reached 5×10^6.
SNU16 cells were subdivided into five groups and each group of 1×10^6 cells was subjected to treatment with 1 μM infigratinib, 1 μM erlotinib, 1 μM infigratinib and 1 μM erlotinib, 0.1 μM adavosertib and cell growth was recorded over 9 weeks.
SNU16 cells were subdivided into five groups and each group of 1×10^6 cells was subjected to treatment with infigratinib, erlotinib, PD00017273, infigratinib and erlotinib, or infigratinib and PD00017273 and cell growth was recorded over 9 weeks.
SNU16 (CRL-5974) cell line was purchased from ATCC. SNU16 cells were grown in RPMI 1640 medium (Fisher Scientific) with 10% FBS and 100 U/ml penicillin/streptomycin (Fisher Scientific). For the resistance experiments, SNU16 cells were plated at 2 million per T75 flask and were treated with either 1 μM infigratinib (Selleck Chemicals), 1 μM erlotinib (Selleck Chemicals), 10 nM gemcitabine (Sigma Aldrich), or a combination. The media was changed and fresh drug was added at least once per week. The cells were counted over the span of several weeks to measure cell growth.

[9] = system: MYC, FGFR2, and EGFR copy number in SNU16 cells; experiment: qPCR gene copy number in SNU16 cells during infigratinib treatment; type: cell-based, human; settings: 1 μM infigratinib for 9 weeks
Protocol: The SNU16 cells were treated with 1 μM of an FGFR inhibitor (infigratinib) for 9 weeks. DNA was collected at days 3, 14, 28, 42, 56, and 63 days and qPCR was performed to assess copy number for MYC. FGFR2, and EGFR at each time point. Cells after 8 weeks of infigratinib treatment and untreated SNU16 control cells were also assayed by FISH for EGFR.
To assess ecDNA copy number dynamics throughout the development of infigratinib resistance, DNA was extracted using the QIAamp DNA Mini Kit (Qiagen) and the DNA was amplified via quantitative PCR (qPCR) using Taqman copy number assays (ThermoFisher). The EGFR Taqman assay ID was Hs00997424_cn; GFGR2 assay ID was Hs05182482_cn; and the MYC assay ID was Hs03660964_cn. The cycle threshold values were normalized to the internal RNase P Taqman assay, and gene copy number was calculated using the ΔΔCt method and the DNA from a diploid control cell line, DLD1.
Methods: SNU16 control cells were cultured in RPMI-1640 media with 10% FBS under standard tissue culture conditions at 37° C. and with 5% CO2. Low passage control cells were treated with 1 μM infigratinib over the course of 9 weeks. Cells were passaged as needed and media and infigratinib were replaced at least once per week. DNA was collected at day 3 and weeks 2, 4, 6, 8 and 9. Cells in metaphase were collected at 8 weeks from both control and infigratinib-resistant cells.

[10] = system: KATOIII cells; experiment: 5 day viability assay, CellTiter-Glo 2.0; type: cell-based; settings: Homo sapiens, KATO III
[11] = system: SNU16 cells; experiment: Long-term growth curves under targeted inhibitor; type: cell-based, human; settings: infigratinib at EC90 (1 uM), 6 weeks
Protocol: as §2

[12] = system: infigratinib-resistant SNU16 cells; experiment: Secondary resistance, cell growth of infigratinib-resistant SNU16 cells over 5 weeks; type: cell-based, human; settings: FIG. 26, 1 uM infigratinib, 1 uM erlotinib, 10 nM gemcitabine
Protocol: The infigratinib-resistant SNU16 cells (generated as shown in FIG. 25) were subdivided into six groups and each group of 1×10^6 cells was subjected to treatment with 1 uM infigratinib, 1 uM erlotinib, 10 nM gemcitabine, or 1 uM erlotinib+10 nM gemcitabine and the cell growth was recorded over 5 weeks. Each treatment arm was terminated once the cell number reached 5×10^6.

[13] = system: Calu-3 cells; experiment: Long-term growth curves under targeted inhibitor; type: cell-based; settings: Calu3, ERBB2 Chromosomal; 2× then 4× the relative EC50, 6 weeks
Protocol: as §2

[14] = system: SKBR3 cells; experiment: Long-term growth curves under targeted inhibitor; type: cell-based; settings: SKBP3, ERBB2 Chromosomal; 2× then 4× the relative EC50, 6 weeks
Protocol: as §2

[15] = system: Calu-3 cells; experiment: 5 day viability assay, CellTiter-Glo 2.0; type: cell-based; settings: Homo sapiens, Calu3, ERBB2 amplification, Chromosomal, read-out: 3-5 day acute cytotoxicity EC50
Protocol: (§3) For these long-term growth curves, the EC50 of targeted therapy was first determined in short term 5 day viability assays. To determine the EC50 of irbinitinib, H2170 cells were plated at 3000 cell/well in a 96-well plate; SKBR3 and Calu-3 cells were plated at 3500 cells/well in a 96-well plate. All cells were dosed with irbinitinib continuously for 5 days (serial dilutions ranging from 12 nM to 1 uM) along with a DMSO control. EC50 curves were determined based on cell viability using CellTiter-Glo 2.0 reagent (Promega). […]

[16] = system: SKBR3 cells; experiment: 5 day viability assay, CellTiter-Glo 2.0; type: cell-based; settings: Homo sapiens, SK-BR-3; SKBP3, ERBB2 amplification, Chromosomal; read-out: 3-5 day acute cytotoxicity EC50
Protocol: as §3

[17] = system: H2170 cells; experiment: 5 day viability assay, CellTiter-Glo 2.0; type: cell-based; settings: Homo sapiens, NCI-H2170
Protocol: as §3

Cc1ccc(F)c([C@@H](C)[C@H](NS(=O)(=O)c2ccc(Cl)cc2C(N)=O)c2n[nH]c(=O)o2)c1C (racemic) [5-chloro-2-[[rac-(1S,2R)-2-(6-fluoro-2,3-dimethyl-phenyl)-1-(2-oxo-3H-1,3,4-oxadiazol-5-yl)propyl]sulfamoyl]benzamide]
cellular transformation, replication stress [1]: enhanced replication stress and reduced cellular transformation in ecDNA+ compared to ecDNA(−) tumor cells | IC-70 dose [2]: 7 µM | IC90 ([2]; Homo sapiens, COLO 320DM): 10000 nM

N[C@@H]1CCCN(c2c(Br)cnc3[nH]cc(NC(=O)C4CC4)c23)C1 [GDC-0575]
induction of markers of RS and DNA damage (Chk1 phosphorylation at S345, gH2AX) ([3]; 200 nM for 24 h): much stronger induction of markers of RS and DNA damage than ecDNA− cells | sensitivity of HeLa ecDNA+ over HeLa ecDNA− cells ([3]; HeLa ecDNA+ grown in 1 uM methotrexate): increased sensitivity | pRPA levels (% total nuclei positive for P-RPA32 S4/S8 foci) [4]: increases pRPA levels in ecDNA+ (DM) cells vs. matched ecDNA− (HSR) cells | development of methotrexate resistance ([5]; in combination with 100 nM methotrexate): prevented development of methotrexate resistance | cell growth (cell confluence), agent alone ([5]; 10 nM GDC-0575, 100 nM methotrexate, 300 nM-10 μM AZD6738): no effect on cell growth

CCN1CCN(c2ccc(Nc3cc(N(C)C(=O)Nc4c(Cl)c(OC)cc(OC)c4Cl)ncn3)cc2)CC1 [infigratinib]
Long-term culture growth properties [6]: <1 viability >10 weeks | EC90 ([7]; SNU16): 1000 nM | EC50 ([7]; SNU16, ecDNA, read-out: 3-5 day acute cytotoxicity EC50): 14 nM | cell growth / development of primary resistance ([8]; FIG. 25, 12 weeks, 1 uM infigratinib, 1 uM erlotinib, 10 nM gemcitabine): strongly suppressed cell growth for 5 weeks, after which cells developed resistance and grew rapidly | cell growth / resistance formation ([8]; FIG. 30, 1 μM infigratinib, 1 μM erlotinib, 0.1 μM adavosertib): transient growth suppression | cell growth / resistance formation ([8]; FIG. 34): transient growth suppression for approximately 3 weeks | copy number for MYC and FGFR2 [9]: remained relatively constant | copy number of EGFR [9]: increased | EC90 [10]: 1000 nM | EC50 ([10]; Chromosomal, read-out: 3-5 day acute cytotoxicity EC50): 13 nM | Long-term culture growth properties [11]: Near normal | cell growth / development of secondary resistance [12]: no effect on cell growth on its own

Cc1cc(Nc2ncnc3ccc(NC4=NC(C)(C)CO4)cc23)ccc1Oc1ccn2ncnc2c1 [irbinitinib]
Long-term culture growth properties [13]: Reduced proliferation | Long-term culture growth properties [14]: <1% viability >6 weeks | EC50 [15]: 414 nM | EC50 [16]: 43 nM | EC90 [17]: 500 nM | EC50 ([17]; H2170, ERBB2 amplification, ecDNA, read-out: 3-5 day acute cytotoxicity EC50): 110 nM
